From ChEMBL document CHEMBL6153056 (Eur J Med Chem, 2025)
Active and inactive are the calls of the source. The calls are words filed in the database; no cut-off is given here.

Key:
[1] = target: CDK9/cyclin T1 (Homo sapiens, UniProt P50750); assay: Inhibition of CDK9/cyclin T1 (unknown origin) pre-incubated for 20 min followed by 32P-ATP addition and measured after 2 hrs; type: protein-complex assay
[2] = system: DU-145; assay: Antiproliferative activity against human DU-145 cells incubated for 72 hrs by MTT assay; type: functional, cell-based; conditions: DU-145, 72 h
[3] = Tmax in BALB/c mouse at 10 mg/kg, ip measured upto 24 hrs by LC-MS/MS analysis; type: ADME, organism-based; conditions: in vivo
[4] = system: LNCaP; assay: Antiproliferative activity against human LNCaP cells incubated for 72 hrs by MTT assay; type: functional, cell-based
[5] = Toxicity in BALB/c mouse xenografted with human DU-145 cells assessed as effect on body weight at 5 mg/kg, ip measured every 12 hrs for 16 days; type: organism-based; conditions: in vivo, 384 h, time 16 day
[6] = Cmax in BALB/c mouse at 10 mg/kg, ip measured upto 24 hrs by LC-MS/MS analysis; type: ADME, organism-based; conditions: in vivo
[7] = system: PC-3; assay: Antiproliferative activity against human PC-3 cells incubated for 72 hrs by MTT assay; type: functional, cell-based; conditions: PC-3, 72 h
[8] = system: MCF7; assay: Antiproliferative activity against human MCF7 cells incubated for 72 hrs by MTT assay; type: functional, cell-based; conditions: MCF7, 72 h
[9] = Toxicity in BALB/c mouse assessed as change in aspartate transaminase (AST) level in blood at 10 mg/kg, ip measure every 12 hrs for 16 days by biochemical automatic analyzer; type: organism-based; conditions: in vivo, 384 h, time 16 day
[10] = Half life in BALB/c mouse at 10 mg/kg, ip measured upto 24 hrs by LC-MS/MS analysis; type: ADME, organism-based; conditions: in vivo
[11] = Apparent permeability of compound across apical to basolateral side in human Caco-2 cells at 10 uM incubated for 2 hrs; type: ADME, cell-based
[12] = Toxicity in BALB/c mouse assessed as change in aspartate transaminase (AST) level in blood at 5 mg/kg, ip measure every 12 hrs for 16 days by biochemical automatic analyzer; type: organism-based; conditions: in vivo, 384 h, time 16 day
[13] = Cmax in BALB/c mouse at 10 mg/kg, po measured upto 24 hrs by LC-MS/MS analysis; type: ADME, organism-based; conditions: in vivo
[14] = Toxicity in BALB/c mouse assessed as change in creatinine level in blood at 5 mg/kg, ip measured every 12 hrs for 16 days by biochemical automatic analyzer; type: organism-based; conditions: in vivo, 384 h, time 16 day
[15] = system: T47D; assay: Antiproliferative activity against human T47D cells incubated for 72 hrs by MTT assay; type: functional, cell-based
[16] = system: DU-145; assay: Antitumor activity against human DU-145 cells xenografted in BALB/c mouse model assessed as reduction in tumor volume at 5 mg/kg, ip measured every 12 hrs for 16 days; type: functional, organism-based; conditions: time 16.0 day
[17] = Toxicity in BALB/c mouse assessed as change in blood urea nitrogen level in blood at 5 mg/kg, ip measured every 12 hrs for 16 days by biochemical automatic analyzer; type: organism-based; conditions: in vivo, 384 h, time 16 day
[18] = system: DU-145; assay: Antitumor activity against human DU-145 cells xenografted in BALB/c mouse model assessed as reduction in tumor volume at 10 mg/kg, ip measured every 12 hrs for 16 days; type: functional, organism-based; conditions: time 16.0 day
[19] = Drug uptake in human DU-145 cells assessed as increase in green fluorescence in nucleus at 1 uM incubated for 2 hrs by live-cell confocal laser scanning microscopy based analysis; type: ADME; conditions: du-145, 2 h
[20] = system: VCaP; assay: Antiproliferative activity against human VCaP cells incubated for 72 hrs by MTT assay; type: functional, cell-based
[21] = Drug uptake in human DU-145 cells assessed as increase in green fluorescence in cytoplasm at 1 uM incubated for 2 hrs by live-cell confocal laser scanning microscopy based analysis; type: ADME; conditions: du-145, 2 h
[22] = Stability of the compound in stimulated gastric fluid pH 1.2 at 5 uM incubated for 30 mins by HPLC-MS analysis; type: physicochemical; conditions: simulated gastric fluid, read-out: Stability
[23] = system: CWR22R; assay: Antiproliferative activity against human 22Rv1 cells incubated for 72 hrs by MTT assay; type: functional, cell-based; conditions: 22Rv1, 72 h
[24] = Half life in BALB/c mouse at 10 mg/kg, po measured upto 24 hrs by LC-MS/MS analysis; type: ADME, organism-based; conditions: in vivo
[25] = Half life in BALB/c mouse at 2 mg/kg, iv measured upto 24 hrs by LC-MS/MS analysis; type: ADME, organism-based; conditions: in vivo
[26] = Toxicity in BALB/c mouse xenografted with human DU-145 cells assessed as effect on body weight at 10 mg/kg, ip measured every 12 hrs for 16 days; type: organism-based; conditions: in vivo, 384 h, time 16 day
[27] = Toxicity in BALB/c mouse assessed as change in creatinine level in blood at 10 mg/kg, ip measured every 12 hrs for 16 days by biochemical automatic analyzer; type: organism-based; conditions: in vivo, 384 h, time 16 day
[28] = Stability in mouse serum at 5 uM measured after 360 mins by HPLC analysis; type: ADME, cell-free; conditions: read-out: Stability
[29] = Microsomal stability in human liver microsomes assessed as residual activity at 5 uM incubated for 15 min in presence of NADPH generating system by HPLC-MS analysis; type: ADME, Microsome; conditions: read-out: Stability
[30] = Toxicity in BALB/c mouse assessed as change in alanine transferase (ALT) level in blood at 10 mg/kg, ip measured every 12 hrs for 16 days by biochemical automatic analyzer; type: organism-based; conditions: in vivo, 384 h, time 16 day
[31] = Toxicity in BALB/c mouse assessed as change in blood urea nitrogen level in blood at 10 mg/kg, ip measured every 12 hrs for 16 days by biochemical automatic analyzer; type: organism-based; conditions: in vivo, 384 h, time 16 day
[32] = Toxicity in BALB/c mouse assessed as change in alanine transferase (ALT) level in blood at 5 mg/kg, ip measured every 12 hrs for 16 days by biochemical automatic analyzer; type: organism-based; conditions: in vivo, 384 h, time 16 day
[33] = Tmax in BALB/c mouse at 10 mg/kg, po measured upto 24 hrs by LC-MS/MS analysis; type: ADME, organism-based; conditions: in vivo
[34] = system: DU-145; assay: Upregulation of CDK9 expression in human DU-145 cells by Western blot analysis; type: functional, cell-based

CDK9/cyclin T1, sequence (O60563 whole entry): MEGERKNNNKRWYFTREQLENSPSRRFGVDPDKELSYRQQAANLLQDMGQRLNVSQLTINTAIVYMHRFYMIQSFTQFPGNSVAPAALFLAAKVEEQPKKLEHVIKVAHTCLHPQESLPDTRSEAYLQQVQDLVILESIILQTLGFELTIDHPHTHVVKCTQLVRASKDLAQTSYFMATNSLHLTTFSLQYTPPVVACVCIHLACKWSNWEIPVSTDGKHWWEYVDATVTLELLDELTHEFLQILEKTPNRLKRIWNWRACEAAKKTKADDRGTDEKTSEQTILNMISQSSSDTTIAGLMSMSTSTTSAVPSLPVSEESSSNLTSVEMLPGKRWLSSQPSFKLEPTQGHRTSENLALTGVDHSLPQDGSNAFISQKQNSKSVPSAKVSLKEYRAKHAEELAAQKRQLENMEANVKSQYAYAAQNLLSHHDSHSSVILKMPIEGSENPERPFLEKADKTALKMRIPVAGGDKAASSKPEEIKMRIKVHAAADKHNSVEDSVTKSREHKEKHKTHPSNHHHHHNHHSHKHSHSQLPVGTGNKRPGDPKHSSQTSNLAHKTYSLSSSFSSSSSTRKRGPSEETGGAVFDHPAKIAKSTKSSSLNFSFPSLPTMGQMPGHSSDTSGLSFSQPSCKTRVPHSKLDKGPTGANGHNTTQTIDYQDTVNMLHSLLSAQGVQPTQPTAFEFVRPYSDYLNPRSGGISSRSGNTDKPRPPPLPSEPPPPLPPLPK
CDK9/cyclin T1, sequence (P50750 whole entry): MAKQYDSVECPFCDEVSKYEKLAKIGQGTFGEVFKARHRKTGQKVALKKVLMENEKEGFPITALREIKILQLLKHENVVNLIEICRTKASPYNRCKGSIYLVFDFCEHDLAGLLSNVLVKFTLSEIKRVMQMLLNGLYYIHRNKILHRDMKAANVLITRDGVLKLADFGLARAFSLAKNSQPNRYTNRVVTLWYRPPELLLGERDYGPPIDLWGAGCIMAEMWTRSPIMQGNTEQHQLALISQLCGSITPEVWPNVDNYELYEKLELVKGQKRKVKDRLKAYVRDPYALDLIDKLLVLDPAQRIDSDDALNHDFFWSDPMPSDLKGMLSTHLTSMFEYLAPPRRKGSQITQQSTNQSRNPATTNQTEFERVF

In the case of `CC(=O)N[C@H](CC(N)=O)C(=O)N[C@@H](C)C(=O)N[C@@H](CC(C)C)C(=O)N[C@@H](CCC(N)=O)C(=O)N[C@H](C(=O)N[C@H](CC(C)C)C(=O)NCC(=O)N[C@@H](Cc1ccccc1)C(=O)N[C@H](C)C(=O)N[C@@H](CC(C)C)C(=O)N[C@H](C(N)=O)[C@@H](C)O)[C@@H](C)O`, the IC50 [1] is reported as 36.8 nM and the IC50 [2] is reported as 4050 nM.

`CC(=O)N[C@H](CC(N)=O)C(=O)N[C@H](CCC(N)=O)C(=O)N[C@@H](CC(C)C)C(=O)NCC(=O)N[C@@H](Cc1ccccc1)C(=O)N[C@H](CC(C)C)C(=O)N[C@@H](CC(C)C)C(=O)N[C@@H](C)C(=O)N[C@H](C(=O)N[C@@H](CCC(N)=O)C(=O)N[C@H](C(N)=O)[C@@H](C)O)[C@@H](C)O` gave an IC50 [1] of over 50 nM and an IC50 [2] of over 50000 nM.

For `CC(=O)N[C@@H](CC(N)=O)C(=O)N[C@@H](C)C(=O)N[C@@H](CC(C)C)C(=O)N[C@@H](CCC(N)=O)C(=O)N[C@H](C(=O)N[C@H](CC(C)C)C(=O)NCC(=O)N[C@@H](Cc1ccccc1)C(=O)N[C@H](CCC(N)=O)C(=O)N[C@@H](CC(C)C)C(=O)N[C@H](C(N)=O)[C@@H](C)O)[C@@H](C)O`, the IC50 [1] was 87.4 nM and the IC50 [2] was 9030 nM.

For `CC(=O)N[C@H](CC(N)=O)C(=O)N[C@@H](C)C(=O)N[C@@H](CC(C)C)C(=O)N[C@@H](CCC(N)=O)C(=O)N[C@H](C(=O)N[C@H](CC(C)C)C(=O)NCC(=O)N[C@@H](Cc1ccccc1)C(=O)N[C@H](CCC(N)=O)C(=O)N[C@@H](CC(C)C)C(=O)N[C@H](C(N)=O)[C@@H](C)O)[C@@H](C)O`, the Tmax [3] was 0.49 h, the IC50 [4] was 410 nM and the Activity [5] was “Toxic”. It also gave a Cmax [6] of 2690 ng/mL, an IC50 [7] of 720 nM and an IC50 [8] of 590 nM. The Activity [9] was “Toxic”, the half-life [10] was 4.62 h and the Papp A→B at 2 h, 10 µM [11] was 29.8 ×10⁻⁶ cm/s. For the same molecule, the Activity [12] was “Toxic”, the Cmax [13] was 3200 ng/mL and the Activity [14] was “Toxic”. For the same molecule, the IC50 [15] was 460 nM, the Activity [16] was “Active” and the Activity [17] was “Toxic”. The Activity [18] was “Active; Compound Showed More Effect”, the Drug uptake [19] was “Active” and the IC50 [20] was 810 nM. For the same molecule, the Drug uptake [21] was “Active”, the remaining at 0.5 h, 5 µM [22] was 96.7% and the IC50 [23] was 950 nM. The half-life [24] was 4.87 h, the half-life [25] was 5.13 h and the IC50 [1] was 4.16 nM. For the same molecule, the Activity [26] was “Toxic”, the Activity [27] was “Toxic” and the remaining at 6 h, 5 µM [28] was 87%. The IC50 [2] was 350 nM, the remaining at 0.25 h, 5 µM [29] was 98.2% and the Activity [30] was “Toxic”. For the same molecule, the Activity [31] was “Toxic”, the Activity [32] was “Toxic” and the Tmax [33] was 0.41 h. The Activity [34] was “Active”.

For `CC(=O)N[C@H](C)C(=O)N[C@@H](C)C(=O)N[C@@H](CC(C)C)C(=O)N[C@@H](C)C(=O)N[C@H](C(=O)N[C@H](CC(C)C)C(=O)NCC(=O)N[C@@H](Cc1ccccc1)C(=O)N[C@H](C)C(=O)N[C@@H](CC(C)C)C(=O)N[C@@H](C)C(N)=O)[C@@H](C)O`, the IC50 [1] was over 50 nM and the IC50 [2] was over 50000 nM.

With `Nc1n[nH]c(N)c1/N=N/c1ccc(O)cc1` the IC50 [2] was 33100 nM.

Work on `CC(=O)N[C@H](CC(C)C)C(=O)N[C@@H](C)C(=O)N[C@@H](CC(C)C)C(=O)N[C@@H](CCC(N)=O)C(=O)N[C@H](C(=O)N[C@H](CC(C)C)C(=O)NCC(=O)N[C@@H](Cc1ccccc1)C(=O)N[C@H](CCC(N)=O)C(=O)N[C@@H](CC(C)C)C(=O)N[C@H](C(N)=O)C(C)C)[C@@H](C)O` yielded an IC50 [1] of 17.5 nM and an IC50 [2] of 1670 nM.

With `CC(=O)N[C@H](CC(N)=O)C(=O)N[C@@H](C)C(=O)N[C@H](C(=O)N[C@@H](CCC(N)=O)C(=O)N[C@H](C(=O)N[C@H](CC(C)C)C(=O)NCC(=O)N[C@@H](Cc1ccccc1)C(=O)N[C@H](CCC(N)=O)C(=O)N[C@@H](CC(C)C)C(=O)N[C@H](C(N)=O)[C@@H](C)O)[C@@H](C)O)C(C)C` the IC50 [1] was 23.9 nM and the IC50 [2] was 2520 nM.

In the case of `CC(=O)N[C@H](CC(C)C)C(=O)N[C@@H](C)C(=O)N[C@@H](CC(C)C)C(=O)N[C@@H](CCC(N)=O)C(=O)N[C@H](C(=O)N[C@H](CC(C)C)C(=O)NCC(=O)N[C@@H](Cc1ccccc1)C(=O)N[C@H](CCC(N)=O)C(=O)N[C@@H](CC(C)C)C(=O)N[C@H](C(N)=O)[C@@H](C)O)[C@@H](C)O`, the Papp A→B at 2 h, 10 µM [11] is reported as 26.8 ×10⁻⁶ cm/s, the remaining at 0.5 h, 5 µM [22] is reported as 94.2% and the IC50 [1] is reported as 10.5 nM. For the same molecule, the IC50 [2] was 820 nM, the remaining at 0.25 h, 5 µM [29] was 95.6% and the Activity [34] was “Active”.
